Entries after “also recorded” stand apart in the source; their conditions may differ.
Legend:
[1] = target: T1, folate receptors (FRs) on KB cells (Homo sapiens, UniProt P15328); experiment: Relative affinity assay (displacement of 3H-folic acid); type: binding; settings: relative to folic acid, set to 1, 100 nM 3H-folic acid
T1 construct: FR-positive KB cells were heavily seeded into 24-well cell culture plates; endogenous in cells; host or cells: KB cells
Experimental: The affinity for folate receptors (FRs) relative to folate was determined according to a previously described method (Westerhof, G. R., J. H. Schomagel, et al. (1995) Mol. Pharm. 48: 459-471) with slight modification. Briefly, FR-positive KB cells were heavily seeded into 24-well cell culture plates and allowed to adhere to the plastic for 18 h. Spent incubation media was replaced in designated wells with folate-free RPMI (FFRPMI) supplemented with 100 nM ^3H-folic acid in the absence and presence of increasing concentrations of test article or folic acid. Cells were incubated for 60 min at 37° C. and then rinsed 3 times with PBS, pH 7.4. Five hundred microliters of 1% SDS in PBS, pH 7.4, were added per well. Cell lysates were then collected and added to individual vials containing 5 mL of scintillation cocktail, and then counted for radioactivity. Negative control tubes contained only the ^3H-folic acid in FFRPMI (no competitor). Positive control tubes contained a final concentration of 1 mM folic acid, and CPMs measured in these samples (representing non-specific binding of label) were subtracted from all samples.

[2] = tested on: FR-positive M109 tumors; experiment: Inhibition of tumor growth in mice, M109; type: in vivo, Balb/c mice
Experimental: The anti-tumor activity of the compounds described herein, when administered intravenously (i.v.) to tumor-bearing animals, was evaluated in Balb/c mice bearing subcutaneous M109 tumors. […] Tumor growth was measured using calipers at 2-day or 3-day intervals in each treatment group. Tumor volumes were calculated using the equation V=a×b^2/2, where “a” is the length of the tumor and “b” is the width expressed in millimeters.

[3] = Weight determination, nude mice; type: in vivo, nu/nu mice
Experimental: (§1) The percentage weight change of the mice was determined in mice (5 mice/group) on the indicated days post-tumor inoculation (PTI) as shown in the graph for the samples described in the related tumor volume assay.

[4] = tested on: KB, 4T-1c12, and ID8-c115 tumor cell lines; experiment: In vitro cytotoxic activity on three tumor cell lines; settings: 4T-1c12, ID8-c115, plus excess folic acid
[5] = tested on: folate receptor negative 4T1 tumors; experiment: 4T-1 tumor volume assay; type: in vivo, Balb/c mice; settings: 2 μmol/kg TIW for two weeks
Experimental: Six to seven week-old mice (female Balb/c strain) were obtained from Harlan, Inc., Indianapolis, Ind. The mice were maintained on Harlan's folate-free chow for a total of three weeks prior to the onset of and during this experiment. Folate receptor-negative 4T-1 tumor cells (1×10^6 cells per animal) were inoculated in the subcutis of the right axilla. […] Tumor growth was measured using calipers at 2-day or 3-day intervals in each treatment group. Tumor volumes were calculated using the equation V=a×b^2/2, where “a” is the length of the tumor and “b” is the width expressed in millimeters.

[6] = tested on: folate receptor-positive KB cells; type: cell-based, human
Experimental: The compounds described herein were evaluated using an in vitro cytotoxicity assay that predicts the ability of the drug to inhibit the growth of folate receptor-positive KB cells. The compounds were comprised of folate linked to a respective chemotherapeutic drug, as prepared according to the protocols described herein. The KB cells were exposed for up to 7 h at 37° C. to the indicated concentrations of folate-drug conjugate in the absence or presence of at least a 100-fold excess of folic acid. The cells were then rinsed once with fresh culture medium and incubated in fresh culture medium for 72 hours at 37° C. Cell viability was assessed using a ^3H-thymidine incorporation assay.
As shown in the figures herein, dose-dependent cytotoxicity was measurable, and in most cases, the IC50 values (concentration of drug conjugate required to reduce ^3H-thymidine incorporation into newly synthesized DNA by 50%) were in the low nanomolar range.

[7] = Weight determination, Balb/c mice (M109 study); type: in vivo; settings: 1 μmol/kg and 2 μmol/kg TIW (6 doses)
Experimental: as §1

[8] = tested on: folate receptor positive human tumors; type: in vivo, nude mice; settings: 2 μmol/kg TIW, five animals
[9] = tested on: FR-positive s.c. human xenograft KB tumors; experiment: Inhibition of tumor growth in mice, KB; type: in vivo, nu/nu mice
Experimental: The anti-tumor activity of the compounds described herein, when administered intravenously (i.v.) to tumor-bearing animals, was evaluated in nu/nu mice bearing subcutaneous KB tumors. […] Tumor growth was measured using calipers at 2-day or 3-day intervals in each treatment group. Tumor volumes were calculated using the equation V=a×b^2/2, where “a” is the length of the tumor and “b” is the width expressed in millimeters.

[10] = 1 μmol/kg TIW for 2 weeks plus 40 μmol/kg EC20 (rhenium complex)
[11] = 1 μmol/kg TIW for 2 weeks, without EC20

T1 sequence (P15328 25-234): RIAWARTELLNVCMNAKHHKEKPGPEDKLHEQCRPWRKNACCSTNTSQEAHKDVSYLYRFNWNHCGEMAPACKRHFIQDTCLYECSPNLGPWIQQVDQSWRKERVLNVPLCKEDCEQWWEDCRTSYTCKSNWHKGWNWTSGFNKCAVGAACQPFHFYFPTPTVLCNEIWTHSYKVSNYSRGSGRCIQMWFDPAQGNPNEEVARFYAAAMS

Structure (SMILES) | relative binding affinity at folic acid receptors [1] | growth of M109 tumors ([2]; 1 μmol/kg and 2 μmol/kg TIW (6 doses)) | growth of M109 tumors, higher dose ([2]; 2 μmol/kg TIW (6 doses), also after dosing ended on day 20) | complete responses, M109 tumors ([2]; 2 μmol/kg TIW (6 doses), five animals) | weight of nu/nu (nude) mice, with EC20 [3, 10] | weight of nu/nu (nude) mice [3, 11] | weight of nude mice ([3]; 2 μmol/kg TIW, FIG. 11) | in vitro cytotoxic activity with excess folic acid [4] | activity on 4T1 tumors [5] | potency of Example 11 relative to Example 9 ([6]; 3H-thymidine incorporation IC50 compared) | IC50 ([6]; KB cells, without excess folic acid, read-out: IC50, 3H-thymidine incorporation) [nM] | effect of excess folic acid on activity in 3H-thymidine incorporation ([6]; with excess folic acid) | weight of Balb/c mice [7] | complete responses, FR-positive human tumors [8] | complete responses, KB tumors ([9]; 1 μmol/kg TIW for 2 weeks (6 doses), alone) | complete responses, KB tumors, with EC20 [9, 10] | growth of KB tumors, with EC20 [9, 10] | growth of KB tumors [9, 11] | activity on established s.c. KB tumors versus controls ([9]; 1 μmol/kg TIW for two weeks, FIG. 13) | activity on large s.c. KB tumors ([9]; 2 μmol/kg TIW, 2 weeks, start at 250, 500 or 750 mm^3)
Nc1nc2ncc(CNc3ccc(C(=O)N[C@@H](CCC(=O)O)C(=O)O)cc3)nc2c(=O)[nH]1 [folic acid, reference compound] | 1.0 | – | – | – | – | – | – | – | – | – | – | – | – | – | – | – | – | – | – | –
CC[C@]1(O)CC2CN(CCc3c([nH]c4ccccc34)[C@@](C(=O)OC)(c3cc4c(cc3OC)N(C)[C@H]3[C@@](O)(C(=O)NNC(=O)OCCSSC[C@H](NC(=O)[C@H](CNC(=O)CCSSCCNC5=C(C)C(=O)C6=C(C5=O)[C@@H](COC(N)=O)[C@@]5(OC)[C@H]7N[C@H]7CN65)NC(=O)[C@H](CC(=O)O)NC(=O)[C@H](CC(=O)O)NC(=O)[C@H](CC(=O)O)NC(=O)CC[C@H](NC(=O)c5ccc(NCc6cnc7nc(N)[nH]c(=O)c7n6)cc5)C(=O)O)C(=O)O)[C@H](O)[C@]5(CC)C=CCN6CC[C@]43[C@@H]65)C2)C1 (stereo partly shown) [Example 11] | 0.21 | inhibited the growth of solid tumors | strong inhibition of tumor growth | all five animals showed a complete response | absence of an effect | did not affect the weight of the test animal significantly from controls; also recorded: absence of an effect | did not significantly affect the weight of the test animals; also recorded: absence of an effect | reduced in the presence of excess folic acid | does not have any effect on the tumors compared to controls | more than 10 fold | 5 | folic acid competes with the conjugates for binding to the folate receptor | little effect on the weight of the mice; also recorded: absence of an effect | complete response in five out of five test animals | 5/5 | 0/5 | inhibitory effect is prevented (competed against) by the EC20 rhenium complex | inhibits the growth of solid tumors | superior to controls | inhibits the growth of large tumors and gives a complete response in test animals
CC[C@]1(O)C[C@@H]2CN(CCc3c([nH]c4ccccc34)[C@@](C(=O)OC)(c3cc4c(cc3OC)N(C)[C@H]3[C@@](O)(C(=O)NNC(=O)OCCSSC[C@H](NC(=O)[C@H](CN)NC(=O)[C@H](CC(=O)O)NC(=O)[C@H](CC(=O)O)NC(=O)[C@H](CC(=O)O)NC(=O)CC[C@H](NC(=O)c5ccc(NCc6cnc7nc(N)[nH]c(=O)c7n6)cc5)C(=O)O)C(=O)O)[C@H](O)[C@]5(CC)C=CCN6CC[C@]43[C@@H]65)C2)C1 [Example 9] | 0.24 | – | – | – | – | – | – | – | – | – | – | – | – | – | – | – | – | – | – | –

Reference: patent US8465724B2, “Multi-drug ligand conjugates” (Endocyte, Inc., priority 2005, dated 2013)
